The source made the active and inactive calls. No cut-off for these calls is given here.
Key:
[1] = system: RAW264.7; experiment: Cytotoxicity against mouse RAW264.7 cells assessed as reduction in cell viability at 1 uM incubated for 12 hrs; format: cell-based; conditions: raw264.7, 12 h
[2] = system: RAW264.7; experiment: Cytotoxicity against mouse RAW264.7 cells assessed as reduction in cell viability at 5 uM incubated for 12 hrs relative to control; format: cell-based; conditions: raw264.7, 12 h
[3] = system: RAW264.7; experiment: Cytotoxicity against mouse RAW264.7 cells assessed as reduction in cell viability at 10 uM incubated for 12 hrs relative to control; format: cell-based; conditions: raw264.7, 12 h
[4] = system: RAW264.7; experiment: Photostability of compound in mouse RAW264.7 cells at 1 uM measured for 10 to 120 secs; format: ADME, cell-based; conditions: raw264.7, 1 µM, time 10-120 sec
[5] = system: A549; experiment: Induction of morphological changes in human A549 cells assessed as appearance of round shaped cells at 1 uM incubated for 48 hrs; format: functional, cell-based
[6] = system: A549; experiment: Cytotoxicity against human A549 cells assessed as reduction in cell growth at 1 to 10 uM incubated for 24 to 48 hrs; format: functional, cell-based; conditions: dose microM 1-10, time hrs 24-48
[7] = system: A549; experiment: Cytotoxicity against human A549 cells assessed as reduction in cell growth incubated for 24 to 48 hrs; format: functional, cell-based
[8] = system: A549; experiment: Induction of necrosis in human A549 cells by LDH assay; format: functional, cell-based
[9] = system: A549; experiment: Induction of morphological changes in human A549 cells assessed as nuclear condensation at 0.5 to 10 uM incubated for 48 hrs by AO and Hoechst 33258 staining based assay; format: functional, cell-based; conditions: dose microM 0.5-10, time 48.0 hrs
[10] = system: A549; experiment: Induction of morphological changes in human A549 cells assessed as nuclear fragmentation at 0.5 to 10 uM incubated for 48 hrs by AO and Hoechst 33258 staining based assay; format: functional, cell-based; conditions: dose microM 0.5-10, time 48.0 hrs
[11] = system: A549; experiment: Induction of apoptosis in human A549 cells assessed as increase in cleaved PARP1 level incubated for 24 hrs by Western blot analysis; format: functional, cell-based
[12] = system: HUVEC; experiment: Cytotoxicity against HUVEC assessed as reduction in cell viability; format: cell-based; conditions: human
[13] = system: A549; experiment: Antitumor activity against human A549 cells treated chicken chorioallantoic membrane assessed as reduction in tumour mass at 50 to 100 uM measured after 3 to 8 days; format: functional, cell-based; conditions: dose microM 50-100, time day 3-8
[14] = system: A549; experiment: Antitumor activity against human A549 cells treated chicken chorioallantoic membrane assessed as increase in apoptosis cells in tumour mass at 50 to 100 uM by TUNEL staining based confocal microscopic analysis; format: functional, cell-based; conditions: dose microM 50-100
[15] = system: Chorioallantoic membrane; experiment: Induction of angiogenesis in chicken chorioallantoic membrane at 50 to 100 uM by CAM assay; set-up: species or system Gallus gallus; conditions: dose 50-100 µM
[16] = system: Chorioallantoic membrane; experiment: Induction of angiogenesis in chicken chorioallantoic membrane at 200 uM by CAM assay; set-up: species or system Gallus gallus
[17] = target: T1, Myeloperoxidase (Homo sapiens) (UniProt P05164); experiment: Effect on MPO in human A549 cells assessed as reduction in chlorination activity at 10 uM measured after 3 to 12 hrs by fluorescence assay; format: cell-based; conditions: filed as modulator, time hrs 3-12
T1 sequence (whole entry): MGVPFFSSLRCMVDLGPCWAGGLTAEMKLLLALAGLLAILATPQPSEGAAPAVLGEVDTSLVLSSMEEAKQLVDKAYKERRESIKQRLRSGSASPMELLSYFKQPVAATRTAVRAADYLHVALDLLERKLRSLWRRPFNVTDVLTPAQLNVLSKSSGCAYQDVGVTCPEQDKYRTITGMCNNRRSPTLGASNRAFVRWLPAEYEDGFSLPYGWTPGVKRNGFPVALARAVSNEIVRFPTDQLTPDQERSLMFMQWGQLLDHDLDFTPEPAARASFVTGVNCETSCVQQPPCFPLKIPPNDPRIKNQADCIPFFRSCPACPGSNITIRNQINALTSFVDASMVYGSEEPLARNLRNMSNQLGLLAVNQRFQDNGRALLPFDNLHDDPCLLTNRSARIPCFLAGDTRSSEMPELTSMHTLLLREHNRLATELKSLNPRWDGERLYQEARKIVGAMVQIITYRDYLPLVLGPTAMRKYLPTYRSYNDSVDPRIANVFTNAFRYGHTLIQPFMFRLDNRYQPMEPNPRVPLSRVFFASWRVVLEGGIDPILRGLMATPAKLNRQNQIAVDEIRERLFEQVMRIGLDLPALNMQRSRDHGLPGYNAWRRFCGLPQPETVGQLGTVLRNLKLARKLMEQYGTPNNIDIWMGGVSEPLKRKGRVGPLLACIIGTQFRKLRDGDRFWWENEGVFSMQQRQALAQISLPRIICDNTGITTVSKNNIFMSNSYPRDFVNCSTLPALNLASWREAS

[18] = target: T1, Myeloperoxidase (Homo sapiens); experiment: Effect on MPO in human A549 cells assessed as reduction in peroxidation activity at 10 uM measured after 3 to 12 hrs by fluorescence assay; format: cell-based; conditions: filed as modulator, time hrs 3-12
[19] = Drug uptake in LPS stimulated mouse RAW264.7 cells assessed as increase in HOCL mediated fluorescence intensity at 1 uM after 1 hr by confocal microscopic analysis; format: ADME; conditions: raw264.7, 1 h
[20] = system: A549; experiment: Antitumor activity against human A549 cells treated chicken chorioallantoic membrane assessed as reduction in tumour mass at 200 uM measured after 3 to 8 days; format: functional, cell-based; conditions: time day 3-8
[21] = system: A549; experiment: Antitumor activity against human A549 cells treated chicken chorioallantoic membrane assessed as increase in apoptosis cells in tumour mass at 200 uM by TUNEL staining based confocal microscopic analysis; format: functional, cell-based

For `CCN(CC)c1ccc2cc(C3Nc4cccc5cccc(c45)N3)c(=O)oc2c1`, the Activity [1] was “Non-Toxic”, the Activity [2] was 61% and the Activity [3] was 50.5%. The Stabilty [4] was “Stable”, the Activity [5] was “Active” and the Activity [6] was “Active”. For the same molecule, the IC50 [7] was 4.3 µM, the Activity [8] was “inactive” and the Activity [9] was “Active”. The Activity [10] was “Active”, the Activity [11] was “Active” and the Activity [12] was “Non-Toxic”. For the same molecule, the Activity [13] was “Active”, the Activity [14] was “Active” and the Activity [15] was “Non-Toxic”. The Activity [16] was “Non-Toxic”, the Activity [17] was “Active” and the Activity [18] was “Active”. For the same molecule, the Drug uptake [19] was “Active”.

With `O=c1[nH]cc(F)c(=O)[nH]1` the Activity [20] was “Active” and the Activity [21] was “Active”.
